Experimental data: patent US6737383B1, “Herbicidal oxadiazolidines” (priority 1999, dated 2004)

Key:
bedstraw = assay: Test B pre/postemergence bedstraw; assay type: in vivo, Galium aparine
Method in brief: (§1)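 Herbicidal effect was estimated by eye on a ten-point control scale after plants spent twelve to sixteen days in a greenhouse following soil or foliar treatment. Foliar sprays targeted plants at one to four leaves; all doses were formulated in a non-phytotoxic solvent with surfactant.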

blackgrass = assay: Test B pre/postemergence blackgrass; assay type: in vivo, Alopecurus myosuroides
Method in brief: as §1

surinam grass = assay: Test B pre/postemergence surinam grass; assay type: in vivo, Brachiaria decumbens
Method in brief: as §1

cocklebur = assay: Test B pre/postemergence cocklebur; assay type: in vivo, Xanthium strumarium
Method in brief: as §1

corn = assay: Test B pre/postemergence corn; assay type: in vivo, Zea mays
Method in brief: as §1

crabgrass = assay: Test B pre/postemergence crabgrass; assay type: in vivo, Digitaria sanguinalis
Method in brief: as §1

giant foxtail = assay: Test B pre/postemergence giant foxtail; assay type: in vivo, Setaria faberii
Method in brief: as §1

morningglory = assay: Test B pre/postemergence morningglory; assay type: in vivo, Ipomoea hederacea
Method in brief: as §1

pigweed = assay: Test B pre/postemergence pigweed; assay type: in vivo, Amaranthus retroflexus
Method in brief: as §1

rape = assay: Test B pre/postemergence rape; assay type: in vivo, Brassica napus
Method in brief: as §1

soybean = assay: Test B pre/postemergence soybean; assay type: in vivo, Glycine max
Method in brief: as §1

sugar beet = assay: Test B pre/postemergence sugar beet; assay type: in vivo, Beta vulgaris
Method in brief: as §1

velvetleaf = assay: Test B pre/postemergence velvetleaf; assay type: in vivo, Abutilon theophrasti
Method in brief: as §1

wheat = assay: Test B pre/postemergence wheat; assay type: in vivo, Triticum aestivum
Method in brief: as §1

wild oat = assay: Test B pre/postemergence wild oat; assay type: in vivo, Avena fatua
Method in brief: as §1

purple nutsedge = assay: Test B pre/postemergence purple nutsedge; assay type: in vivo, Cyperus rotundus
Method in brief: as §1

[1] = Preemergence, Rate 250 g/ha, scale 0 (no effect) to 10 (complete control)
[2] = Rate 62 g/ha, Preemergence, scale 0 to 10
[3] = Rate 250 g/ha, Postemergence, scale 0 to 10, 0 is no effect, 10 is complete control
[4] = Rate 500 g/ha, Postemergence, scale 0 to 10, 0 is no effect, 10 is complete control
[5] = Rate 500 g/ha, Preemergence, scale 0 to 10 (0 no effect, 10 complete control)
[6] = Postemergence, Rate 62 g/ha, scale 0 to 10, 0 is no effect, 10 is complete control
[7] = Postemergence, Rate 125 g/ha, scale of 0 to 10 where 0 is no effect and 10 is complete control
[8] = Preemergence, Rate 125 g/ha, scale of 0 to 10 where 0 is no effect and 10 is complete control

## CC(C)N(C(=O)n1oc(=O)n(CC(F)F)c1=O)c1ccc(Cl)cc1 [Compound 745]
bedstraw; [1]
  Bedstraw plant response rating: 5
bedstraw; [2]
  Bedstraw plant response rating: 0
bedstraw; [3]
  Bedstraw plant response rating: 7
bedstraw; [4]
  Bedstraw plant response rating: 9
bedstraw; [5]
  Bedstraw plant response rating: 5
blackgrass; [6]
  Plant response rating, Blackgrass: 3
blackgrass; [7]
  Blackgrass plant response rating: 3
blackgrass; [8]
  Plant response rating, Blackgrass: 6
blackgrass; [1]
  Blackgrass plant response rating: 9
blackgrass; [2]
  Blackgrass plant response rating: 3
blackgrass; [3]
  Blackgrass plant response rating: 8
blackgrass; [4]
  Blackgrass plant response rating: 9
blackgrass; [5]
  Blackgrass plant response rating: 9
Surinam grass; [6]
  Plant response rating, B. signalgrass: 0
Surinam grass; [7]
  B. signalgrass plant response rating: 0
Surinam grass; Preemergence, Rate 62 g/ha, scale of 0 to 10 where 0 is no effect and 10 is complete control
  B. signalgrass plant response rating: 8
Surinam grass; [8]
  Plant response rating, B. signalgrass: 9
Surinam grass; [1]
  B. signalgrass plant response rating: 10
Surinam grass; [3]
  B. signalgrass plant response rating: 6
Surinam grass; [4]
  B. signalgrass plant response rating: 6
Surinam grass; [5]
  B. signalgrass plant response rating: 10
cocklebur; [6]
  Plant response rating, Cocklebur: 0
cocklebur; [7]
  Cocklebur plant response rating: 0
cocklebur; [8]
  Plant response rating, Cocklebur: 0
cocklebur; [1]
  Cocklebur plant response rating: 0
cocklebur; [2]
  Cocklebur plant response rating: 0
cocklebur; [3]
  Cocklebur plant response rating: 0
cocklebur; [4]
  Cocklebur plant response rating: 4
cocklebur; [5]
  Cocklebur plant response rating: 0
corn; [6]
  Plant response rating, Corn: 0
corn; [7]
  Corn plant response rating: 0
corn; [8]
  Plant response rating, Corn: 0
corn; [1]
  Corn plant response rating: 2
corn; [2]
  Corn plant response rating: 0
corn; [3]
  Corn plant response rating: 0
corn; [4]
  Corn plant response rating: 0
corn; [5]
  Corn plant response rating: 2
crabgrass; [6]
  Plant response rating, Crabgrass: 4
crabgrass; [7]
  Crabgrass plant response rating: 4
crabgrass; [8]
  Plant response rating, Crabgrass: 10
crabgrass; [1]
  Crabgrass plant response rating: 10
crabgrass; [2]
  Crabgrass plant response rating: 7
crabgrass; [3]
  Crabgrass plant response rating: 9
crabgrass; [4]
  Crabgrass plant response rating: 9
crabgrass; [5]
  Crabgrass plant response rating: 10
Giant foxtail; [6]
  Plant response rating, Giant foxtail: 2
Giant foxtail; [7]
  Giant foxtail plant response rating: 2
Giant foxtail; [8]
  Plant response rating, Giant foxtail: 10
Giant foxtail; [1]
  Giant foxtail plant response rating: 10
Giant foxtail; [2]
  Giant foxtail plant response rating: 10
Giant foxtail; [3]
  Giant foxtail plant response rating: 9
Giant foxtail; [4]
  Giant foxtail plant response rating: 9
Giant foxtail; [5]
  Giant foxtail plant response rating: 10
morningglory; [6]
  Plant response rating, Morningglory: 3
morningglory; [7]
  Morningglory plant response rating: 3
morningglory; [8]
  Plant response rating, Morningglory: 0
morningglory; [1]
  Morningglory plant response rating: 0
morningglory; [2]
  Morningglory plant response rating: 0
morningglory; [3]
  Morningglory plant response rating: 3
morningglory; [4]
  Morningglory plant response rating: 8
morningglory; [5]
  Morningglory plant response rating: 3
pigweed; [6]
  Plant response rating, Redroot pigweed: 2
pigweed; [7]
  Redroot pigweed plant response rating: 2
pigweed; [8]
  Plant response rating, Redroot pigweed: 9
pigweed; [1]
  Redroot pigweed plant response rating: 10
pigweed; [2]
  Redroot pigweed plant response rating: 7
pigweed; [3]
  Redroot pigweed plant response rating: 5
pigweed; [4]
  Redroot pigweed plant response rating: 6
pigweed; [5]
  Redroot pigweed plant response rating: 10
rape; [6]
  Plant response rating, Rape: 0
rape; [7]
  Rape plant response rating: 0
rape; [8]
  Plant response rating, Rape: 5
rape; [1]
  Rape plant response rating: 7
rape; [2]
  Rape plant response rating: 0
rape; [3]
  Rape plant response rating: 5
rape; [4]
  Rape plant response rating: 7
rape; [5]
  Rape plant response rating: 7
soybean; [6]
  Plant response rating, Soybean: 3
soybean; [7]
  Soybean plant response rating: 3
soybean; [8]
  Plant response rating, Soybean: 0
soybean; [1]
  Soybean plant response rating: 0
soybean; [2]
  Soybean plant response rating: 0
soybean; [3]
  Soybean plant response rating: 5
soybean; [4]
  Soybean plant response rating: 5
soybean; [5]
  Soybean plant response rating: 0
Sugar beet; [6]
  Plant response rating, Sugarbeets: 2
Sugar beet; [7]
  Sugarbeets plant response rating: 2
Sugar beet; [8]
  Plant response rating, Sugarbeets: 4
Sugar beet; [1]
  Sugarbeets plant response rating: 4
Sugar beet; [2]
  Sugarbeets plant response rating: 0
Sugar beet; [3]
  Sugarbeets plant response rating: 4
Sugar beet; [4]
  Sugarbeets plant response rating: 4
Sugar beet; [5]
  Sugarbeets plant response rating: 4
velvetleaf; [6]
  Plant response rating, Velvetleaf: 0
velvetleaf; [7]
  Velvetleaf plant response rating: 0
velvetleaf; [8]
  Plant response rating, Velvetleaf: 0
velvetleaf; [1]
  Velvetleaf plant response rating: 4
velvetleaf; [2]
  Velvetleaf plant response rating: 0
velvetleaf; [3]
  Velvetleaf plant response rating: 3
velvetleaf; [4]
  Velvetleaf plant response rating: 7
velvetleaf; [5]
  Velvetleaf plant response rating: 6
wheat; [6]
  Plant response rating, Wheat: 0
wheat; [7]
  Wheat plant response rating: 0
wheat; [8]
  Plant response rating, Wheat: 0
wheat; [1]
  Wheat plant response rating: 0
wheat; [2]
  Wheat plant response rating: 0
wheat; [3]
  Wheat plant response rating: 0
wheat; [4]
  Wheat plant response rating: 3
wheat; [5]
  Wheat plant response rating: 0
Wild oat; [6]
  Plant response rating, Wild oats: 0
Wild oat; [7]
  Wild oats plant response rating: 0
Wild oat; [8]
  Plant response rating, Wild oats: 6
Wild oat; [1]
  Wild oats plant response rating: 8
Wild oat; [2]
  Wild oats plant response rating: 2
Wild oat; [3]
  Wild oats plant response rating: 4
Wild oat; [4]
  Wild oats plant response rating: 4
Wild oat; [5]
  Wild oats plant response rating: 8
Purple nutsedge; [6]
  Plant response rating, Nutsedge: 0
Purple nutsedge; [7]
  Nutsedge plant response rating: 0
Purple nutsedge; [1]
  Nutsedge plant response rating: 0
Purple nutsedge; [2]
  Nutsedge plant response rating: 0
Purple nutsedge; [3]
  Nutsedge plant response rating: 0
Purple nutsedge; [4]
  Nutsedge plant response rating: 0
Purple nutsedge; [5]
  Nutsedge plant response rating: 5
